Consider eleven compounds from patent publication US20240409536A1, “COMPOUNDS AND METHODS FOR MODULATING SPLICING” (REMIX THERAPEUTICS INC., priority 2021, published 2024).

SMILES strings stand for the structures.

In one series the test system is HiBiT-tagged HTT protein. The series is described as follows: HiBiT protein abundance assay, HTT (K562 HiBiT knock-in cells). Type of series: cell-based, human. The settings on record: 24 hours. An outline of the steps: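 K562 cells with endogenous HiBiT knock-in tag, 10-point 3-fold dilutions (top 10 μM final, ≤0.25% DMSO), 24 h at 37 °C. Lytic Nano-Glo HiBiT luminescence, normalized to DMSO and unmodified K562 baselines; IC50 is concentration giving 50% protein abundance from four-parameter fit.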
(HiBiT is a short tag that completes a luciferase, so light tracks the accessible tagged protein.)

The test system of a further series is Target C. As to the kind of experiment: HiBiT protein abundance assay, Target C (K562 HiBiT knock-in cells). Type of series: cell-based, human. The settings on record: 24 hours. In outline:
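K562 knock-in cells (10000/well, IMDM+1% FBS) treated 24 h at 37 °C with 10-point 3-fold dilutions, top final 10 μM, DMSO ≤0.25%. HiBiT lytic luminescence read; response normalized to unmodified K562 and DMSO-treated controls. IC50 interpolated at 50% abundance by four-parameter logistic fit.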

For another series, the system named is HTT mRNA. As to the kind of experiment: Splicing RT-qPCR assay, HTT canonical (CJ) and alternative (AJ) junction mRNA. Type of series: cell-based. The settings on record: Homo sapiens, A673 or K562 cells, 24 hours; for IC50: decrease in canonical junction mRNA; for AC50: increase in alternative junction mRNA. An outline of the steps: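 A673 (DMEM/10% FBS, plated 24 h before dosing) or K562 (IMDM/10% FBS) cells treated 24 h at 37 °C with 11-point 3-fold dilutions, top final 10 uM, DMSO ≤0.25%. Lysates analysed by one-step RT-qPCR for CJ and AJ isoforms, normalized to GAPDH/GUSB (K562) or PPIA (A673).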
Background: Real-time PCR tracks product formation cycle by cycle.

The test system of the next series is K562 cells. As to the kind of experiment: Cell Titer Glo 2.0 cell viability assay in K562 cells. The settings on record: 72 hours.

The term IC50 denotes the concentration needed to halve the response being measured. High values mean weaker potency in that assay, low ones greater potency in that assay. In general, AC50 refers to the midpoint of the concentration-response curve, whichever way the signal moves. Read a low AC50 as activity at low concentration. Take `CN[C@@H]1CCN(c2ccc(C(=O)Nc3cc(F)c4nc(C)cn4c3)c3nccnc23)C1` (single isomer, unassigned) [Compound 193, N-{8-fluoro-2-methylimidazo[1,2-a]pyridin-6-yl}-8-[3-(methylamino)pyrrolidin-1-yl]quinoxaline-5-carboxamide]: the IC50 in the series on HiBiT-tagged HTT protein is 1 to 10 µM; in the series on Target C, 1 to 10 µM; in the series on HTT mRNA, more than 10 µM. The AC50 in the series with HTT mRNA is more than 10 µM. Also, the Viability entry in the series with K562 cells is “A (A represents <100 nM)”.

Regarding `CN[C@H]1CCN(c2ccc(C(=O)Nc3cc(F)c4nc(C)cn4c3)c3nccnc23)C1` (single isomer, unassigned) [Compound 194, N-{8-fluoro-2-methylimidazo[1,2-a]pyridin-6-yl}-8-[3-(methylamino)pyrrolidin-1-yl]quinoxaline-5-carboxamide], the IC50 in the series with HiBiT-tagged HTT protein fell in the range of 1 to 10 µM; in the series with Target C, 0.1 to 1 µM; with HTT mRNA, 1 to 10 µM. Also, the AC50 with HTT mRNA lay within 1 to 10 µM. Besides, the Viability entry in the series on K562 cells is “A (A represents <100 nM)”.

Turning to `Cc1cn2nc(NC(=O)c3ccc(N4CCNCC4)c4ccnnc34)cc(C)c2n1` [Compound 100], the IC50 in the series on HiBiT-tagged HTT protein, in the series with Target C and in the series on HTT mRNA was 0.1 to 1 µM in each case. The compound further registered an AC50 with HTT mRNA of 0.1 to 1 µM. Also, the Viability entry with K562 cells is “B (B represents 100-1000 nM)”.

Regarding `Cc1cn2cc(NC(=O)c3ccc(N4CCNC5(CC5)C4)c4ccnnc34)cc(F)c2n1` [Compound 105], the IC50 in the series on HiBiT-tagged HTT protein, in the series on Target C and with HTT mRNA was 1 to 10 µM throughout. The compound further showed an AC50 in the series with HTT mRNA of 1 to 10 µM. Further, in the series on K562 cells, the Viability entry was “B (B represents 100-1000 nM)”.

Regarding `Cc1cn2cc(NC(=O)c3ccc(N4C[C@H]5CC[C@@H](C4)N5)c4ccnnc34)cc(F)c2n1` [Compound 108], the IC50 in the series with HiBiT-tagged HTT protein is 1 to 10 µM; in the series with Target C, more than 10 µM; with HTT mRNA, 1 to 10 µM. This compound also had an AC50 in the series with HTT mRNA of 1 to 10 µM.

Regarding `Cc1cn2nc(NC(=O)c3ccc(N4CCNCC4)c4ccnnc34)cc2c(C)n1` [Compound 123], the half-inhibitory concentration (IC50) with HiBiT-tagged HTT protein, with Target C and in the series on HTT mRNA was 1 to 10 µM in each case. The compound also yielded an AC50 in the series with HTT mRNA of 1 to 10 µM. Moreover, in the series on K562 cells, the Viability result is “C (C represents 1000-9999 nM)”.

Turning to `Cc1cn2cc(NC(=O)c3ccc(N4CCNCC4)c4ccnnc34)cc(C)c2n1` [Compound 125], the IC50 in the series on HiBiT-tagged HTT protein, in the series on Target C and with HTT mRNA was 1 to 10 µM in each case. This compound showed an AC50 in the series with HTT mRNA of 1 to 10 µM. The Viability entry in the series on K562 cells is reported as “B (B represents 100-1000 nM)”.

For `O=C(Nc1cn[nH]c1)c1ccc(N2CCNCC2)c2ccnnc12` [Compound 126], the concentration for half-maximal inhibition (IC50) with HiBiT-tagged HTT protein, with Target C and in the series with HTT mRNA was more than 10 µM each time. In the series with HTT mRNA, this compound yielded an AC50 of more than 10 µM.

With `Cc1cn2cc(NC(=O)c3ccc(N4CCN(C)CC4)c4ccnnc34)cc(F)c2n1` [Compound 127], the IC50 with HiBiT-tagged HTT protein, with Target C and in the series with HTT mRNA was 1 to 10 µM in each case. In the series with HTT mRNA, the AC50 fell in the range of 1 to 10 µM. Moreover, the Viability result with K562 cells is reported as “C (C represents 1000-9999 nM)”.

Consider `Cc1cn2cc(NC(=O)c3ccc(N(C)[C@@H]4C[C@H]5CC[C@@H](C4)N5)c4ccnnc34)cc(F)c2n1` [Compound 156], for which the IC50 with HiBiT-tagged HTT protein, with Target C and with HTT mRNA was more than 10 µM throughout. For the same compound, the AC50 in the series with HTT mRNA was more than 10 µM.

In the case of `Cc1cn2cc(NC(=O)c3ccc(N4C[C@@H](C)N[C@@H](C)C4)c4nccnc34)cc(F)c2n1` [Compound 186, 8-(3,5-dimethylpiperazin-1-yl)-N-{8-fluoro-2-methylimidazo[1,2-a]pyridin-6-yl}quinoxaline-5-carboxamide], the IC50 in the series with HiBiT-tagged HTT protein, in the series on Target C and in the series on HTT mRNA was 1 to 10 µM in each case. The AC50 with HTT mRNA is 1 to 10 µM.
